Experimental data taken from patent US7959743B2, “Lithium salts of fatty alcohol sulphates for cleaning boreholes, boring devices and borings” (priority 2004, dated 2011).

Tested on: Corophium volutator
Details: in vivo

Row | Substance | Corophium volutator 10 d, LC 50
1 | C8-10 alkyl-1,5-glucoside [V4] | None after 433 mg/kg
2 | Soya polyol ethoxylate [V3] | 1888 mg/kg
